Assays:
[1] = test system: mouse pancreatic β cell line MIN6; assay: Insulin secretion from MIN6 in KRBH buffer (immunoassay); type: cell-based; conditions: 22 mM glucose KRBH, 90 minutes
Experimental: The mouse pancreatic β cell line MIN6 incubated in a flask was scraped in PBS containing 2.5 mM EDTA and plated in a 96-well plate followed by incubation for 2 days. The medium used was the same as in EXAMPLE 24, namely, 4.5 g/l of glucose-containing Dulbecco's Modified Eagle Medium (DMEM, Invitrogen, Inc.) supplemented with 15% fetal calf serum (ThermoTrace, Inc.), 5.5 μM 2-mercaptethanol (Invitrogen, Inc.), 20 mM HEPES pH 7.3, 100 U/ml penicillin and 100 μg/ml streptomycin. The cells were washed twice with modified Krebs-Ringer bicarbonate buffer (KRBH, 116 mM NaCl, 4.7 mM KCl, 1.2 mM KH2PO4, 1.2 mM MgSO4, 2.5 mM CaCl2, 25 mM NaHCO3, 24 mM HEPES, pH 7.3), followed by preincubation at 37° C. in 5% CO2 for 30 minutes. The fatty acid diluted/prepared using the aforesaid KRBH buffer added with 22 mM glucose was added to the cells after the preincubation, followed by incubation under the conditions of 37° C. in 5% CO2 for 90 minutes. After the incubation, the supernatant of the cells was recovered and stored in a frozen state. The insulin content in the supernatant was assayed using an insulin immunoassay kit commercially available (Amersham Pharmacia, Inc.).
Based on the method of EXAMPLE 25, effects of glucose level when added with fatty acids were examined. The level of glucose, which was added to KRBH upon the addition of fatty acids, was varied to 0, 5.5, 11 and 22 mM to study the effects.
The insulin secretion enhancing activity in the m40i103-introduced MIN6 cells using HVJ Envelope VECTOR KIT GenomONE based on the method of EXAMPLE 18 was examined. The insulin secretion enhancing activity by fatty acids was examined according to the method of EXAMPLE 25.
Based on the procedures of EXAMPLE 25, an essential prerequisite of Ca^2+ ions in the extracellular fluid was examined. In preincubation and incubation with a sample, Ca^2+ ions were removed and 0.1 mM EGTA, which was a reagent for chelating Ca^2+ ions, was further added, and then the insulin secretion enhancing activity by fatty acids was examined in this case.
Based on the method of EXAMPLE 25, effects of Ca^2+ channel blocker (Nifedipine) and MAP kinase inhibitor (PD98059) were examined. In preincubation and incubation with a sample, the insulin secretion enhancing activity by fatty acids was examined when Nifedipine (10 μM) or PD98059 (50 μM) was added.
It is known that fatty acids have the property of binding to albumin. Based on the method of EXAMPLE 25, effects were examined when bovine serum albumin (BSA) was present. In preincubation and incubation with a sample, the insulin secretion activity by fatty acids was examined when 0.1% BSA was added to the buffer.

[2] = target: T1, human GPR40 (Homo sapiens, UniProt O14842); assay: EC50 by FLIPR calcium assay in CHO cells stably expressing human GPR40; type: cell-based; conditions: intracellular calcium, FLIPR, stable CHO line; for EC50: read-out: EC50 Human GPR40
T1 construct: The resulting fragment (ca. 1 kb) was introduced into vector pAKKO-111, which was used for transfection of CHO cells; expressed in transfected cells
T1 sequence (O14842 whole entry, the tested form may be a part): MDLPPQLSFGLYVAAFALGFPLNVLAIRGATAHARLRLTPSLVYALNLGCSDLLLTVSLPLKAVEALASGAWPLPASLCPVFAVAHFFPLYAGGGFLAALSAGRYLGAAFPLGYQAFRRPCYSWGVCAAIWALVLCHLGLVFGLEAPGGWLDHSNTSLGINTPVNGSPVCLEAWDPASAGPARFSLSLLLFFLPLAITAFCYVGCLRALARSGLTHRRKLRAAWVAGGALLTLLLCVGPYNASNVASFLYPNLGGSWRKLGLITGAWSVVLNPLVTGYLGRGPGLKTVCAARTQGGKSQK
Experimental: (§1) For determination of EC50 values, the CHO cell lines in which human-, mouse- and rat-derived GPR40 was stably expressed were used. Unless otherwise indicated, these CHO cell lines were incubated in α-MEM medium (Invitrogen) supplemented with 10% fetal calf serum (Invitrogen).
(§2) On the day before assay, the cells incubated to almost confluent stage were rinsed with PBS (Invitrogen), then scraped in 0.05% trypsin-EDTA solution (Invitrogen) and recovered by centrifugal operation. The number of the cells obtained was counted and diluted so as to contain 3×10^5 cells/1 mL of the medium. The dilution was dispensed in a Black welled 96-well plate (Coster) in 100 μL/well, followed by incubation overnight in a CO2 incubator. To the thus prepared CHO cells, various test samples were added and the changes in intracellular calcium level in this case were measured using FLIPR (Molecular Device). In order to determine the changes in the intracellular calcium ion level on FLIPR, the cells were pre-treated by the following procedures.
(§3) First, for the purpose of adding a fluorescent dye Fluo-3 AM (DOJIN) to the cells or washing the cells immediately before the FLIPR assay, an assay buffer was prepared. A solution obtained by adding 20 mL of 1M HEPES (pH 7.4) (DOJIN) to 1000 mL of HBSS (Invitrogen) was prepared (hereinafter HBSS/HEPES solution), to which 10 mL of a solution mixture obtained by dissolving 710 mg of Probenecid (Sigma) in 5 mL of 1N NaOH and further adding 5 mL of HBSS/HEPES solution was added. The resulting solution was used as the assay buffer. Next, 50 μg of Fluo-3AM was dissolved in 21 μL of DMSO (Wako) and an equal volume of 20% Pulronic acid (Molecular Probes) was added to and mixed with the solution. The mixture was then added to 10.6 mL of the assay buffer supplemented with 105 μL of fetal calf serum to prepare a fluorescent dye solution. […], the medium for the CHO cells again plated in a Black welled 96-well plate was removed. Immediately thereafter, the fluorescent dye solution was dispensed in 100 μL each/well and the cells were incubated in a CO2 incubator for an hour so that the fluorescent dye was taken up into the cells. The cells after the incubation was washed with the assay buffer described above and set on FLIPR. […] After the pre-treatment above was made, the changes in intracellular calcium level after the addition of various test samples were measured on FLIPR.

[3] = target: T2, Mouse GPR40 (Mus musculus, UniProt Q76JU9); assay: EC50 by FLIPR calcium assay in CHO cells stably expressing mouse GPR40; type: cell-based; conditions: intracellular calcium, FLIPR, stable CHO line
T2 construct: expressed in transfected cells
T2 sequence (Q76JU9 whole entry): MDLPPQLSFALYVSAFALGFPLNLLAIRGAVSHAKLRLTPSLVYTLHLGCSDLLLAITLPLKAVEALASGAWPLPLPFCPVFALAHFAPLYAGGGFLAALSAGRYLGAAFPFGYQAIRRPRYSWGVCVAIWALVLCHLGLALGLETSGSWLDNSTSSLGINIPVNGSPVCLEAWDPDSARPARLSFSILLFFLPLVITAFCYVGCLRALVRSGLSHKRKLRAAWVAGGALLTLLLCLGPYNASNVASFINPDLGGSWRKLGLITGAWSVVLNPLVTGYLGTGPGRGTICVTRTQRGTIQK
Experimental: as §1, §2, §3

[4] = target: T3, Rat GPR40 (Rattus norvegicus, UniProt Q8K3T4); assay: EC50 by FLIPR calcium assay in CHO cells stably expressing rat GPR40; type: cell-based; conditions: intracellular calcium, FLIPR, stable CHO line
T3 construct: expressed in transfected cells
T3 sequence (Q8K3T4 whole entry): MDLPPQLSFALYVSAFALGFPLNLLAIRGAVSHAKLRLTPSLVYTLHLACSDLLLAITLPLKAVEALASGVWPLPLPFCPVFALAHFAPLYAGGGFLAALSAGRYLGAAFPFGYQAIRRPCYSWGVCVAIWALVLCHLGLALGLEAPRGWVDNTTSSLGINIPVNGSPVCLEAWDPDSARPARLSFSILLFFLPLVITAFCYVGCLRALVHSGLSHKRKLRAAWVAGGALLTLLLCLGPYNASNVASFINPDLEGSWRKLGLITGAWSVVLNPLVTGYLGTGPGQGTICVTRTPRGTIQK
Experimental: as §1, §2, §3

[5] = test system: MIN6 cells; assay: FLIPR intracellular calcium assay using MIN6; type: cell-based, mouse; conditions: 10 μM fatty acid
Experimental: Mouse pancreatic β cell line MIN6 incubated in a flask was scraped using PBS containing 2.5 mM EDTA and diluted so as to contain 3×10^5 cells/1 mL of the medium. The dilution was dispensed in a Black welled 96-well plate (Coster) in 100 μL/well, followed by incubation in a CO2 incubator for 2 days. The medium used was 4.5 g/l of glucose-containing Dulbecco's Modified Eagle Medium (DMEM, Invitrogen, Inc.) supplemented with 15% fetal calf serum (ThermoTrace, Inc.), 5.5 μM 2-mercaptethanol (Invitrogen, Inc.), 20 mM HEPES pH 7.3, 100 U/ml penicillin and 100 μg/ml streptomycin. To the thus prepared MIN6 cells, various fatty acids (10 μM) were added and the changes in intracellular calcium level in this case were measured using FLIPR (Molecular Device). The changes in the intracellular calcium ion level on FLIPR were assayed in accordance with the procedures described in EXAMPLE 24.

[6] = target: T4, human-derived GPR40 (Homo sapiens, UniProt O14842); assay: Intracellular calcium change (FLIPR) in CHO-hGPR40 No. 104, eicosanoids; type: cell-based; conditions: added in 10^−5 M to 10^−6 M; no response in vector-only control
T4 construct: The DNA fragment encoding human GPR40 was acquired by the following PCR procedures; expressed in transfected cells; host or cells: CHO-K1 (transient, Lipofectamine)
T4 sequence (O14842 whole entry, the tested form may be a part): as the sequence (O14842 whole entry, the tested form may be a part) above
Experimental: The CHO cell line (CHO-hGPR40 No. 104) wherein human GPR40 prepared by publicly known methods using the human GPR40 expression vector prepared in REFERENCE EXAMPLE 1 was expressed was cultured in MEMα medium (Invitrogen) containing 10% fetal calf serum (Invitrogen), unless otherwise indicated. The cells cultured were rinsed with PBS (Invitrogen), scraped in trypsin/EDTA solution (Invitrogen) and recovered by centrifugal operation. The number of the cells obtained was counted and diluted so as to contain 3×10^4 cells/100 μl. The dilution was dispensed in a Black walled 96-well plate (Costar) in 100 μl/well, followed by incubation overnight in a CO2 incubator. The changes in intracellular calcium level in this case were measured using FLIPR (Molecular Device). In order to determine the changes in the intracellular calcium ion level on FLIPR, the cells were pre-treated by the following procedures. First, for the purpose of adding a fluorescent dye Fluo-3 AM (DOJIN) to the cells or washing the cells immediately before the FLIPR assay, an assay buffer was prepared. A solution obtained by adding 20 ml of 1M HEPES (pH 7.4) (DOJIN) to 1000 ml of HBSS (Invitrogen) was prepared (hereinafter HBSS/HEPES solution), to which 10 ml of a solution mixture obtained by dissolving 710 mg of Probenecid (Sigma) in 5 ml of 1N NaOH and further adding 5 ml of HBSS/HEPES solution was added. The resulting solution was used as the assay buffer. Next, 50 μg of Fluo-3AM was dissolved in 21 μl of DMSO (DOJIN) and an equal volume of 20% Pulronic acid (Molecular Probes) was added to and mixed with the solution. The mixture was then added to 10.6 ml of the assay buffer supplemented with 105 μl of fetal calf serum to prepare a fluorescent dye solution. The medium for the CHO cell line cultured was removed. Immediately thereafter, the fluorescent dye solution was dispensed in 100 μl each/well and the cells were incubated in a CO2 incubator for an hour so that the fluorescent dye was taken up into the cells. The cells after the incubation was washed with the assay buffer described above and set on FLIPR. A test sample added to the CHO cell line was prepared using the assay buffer and set on FLIPR at the same time. After the pre-treatment above was made, the changes in intracellular calcium level after the addition of various test samples were measured on FLIPR. […] It was thus noted that GPR40 was responsive to these compounds as well.

[7] = test system: mouse insulinoma MIN6 cells; assay: Insulin secretion from MIN6 cells with free fatty acid-BSA mixture (RIA); type: cell-based; conditions: 300 μM to 1000 μM; fatty acid-BSA 4:1; 11 mM glucose; 90 (or 60) minutes
Experimental: The MIN6 cells were cultured in DMEM (high glucose, Invitrogen) containing 15% FCS (Trace Scientific Ltd.), 55 μM 2-mercaptoethanol, 100 U/ml penicillin and 100 μg/ml streptomycin, unless otherwise indicated. MIN6 cells were plated in a 96-well plate in 10^5 cells/well, followed by incubation at 37° C. for 3 days in a CO2 incubator adjusted to a concentration of 5% CO2. The medium was replaced by RPMI1640 (glucose free, Invitrogen) containing 10% FCS (Trace Scientific Ltd.), 5.5 mM glucose, 100 U/ml penicillin and 100 μg/ml streptomycin, followed by incubation for further 24 hours. After the medium was removed by suction, a solution mixture of free fatty acid-bovine serum albumin (BSA) (in a molar ratio of 4:1) diluted with RPMI1640 (glucose free, Invitrogen) containing 10% FCS (Trace Scientific Ltd.), 11 mM glucose, 100 U/ml penicillin and 100 μg/ml streptomycin was added to the cells, followed by reacting in a CO2 incubator adjusted to a 5% CO2 concentration at 37° C. for 90 minutes (or 60 minutes). After the reaction, the 96-well plate was centrifuged at 1500 rpm for 5 minutes and the culture supernatant was then recovered. The amount of insulin secreted into the culture supernatant was determined by radioimmunoassay (RIA) using the rat insulin RIA system (Amersham Pharmacia).

Row | Structure (SMILES) | response (increase in intracellular calcium level) of GPR40-expressing CHO cell line [6] | EC50 [2] | other results
1 | CCCC(=O)O [Butyric acid (C4), Butyric acid] |  |  | insulin secretion enhancing activity [1]: did not show any significant insulin secretion enhancing activity; EC50 Human GPR40 [2]: inactive; EC50 Mouse GPR40 [3]: inactive; EC50 Rat GPR40 [4]: inactive; intracellular Ca^2+ level in MIN6 [5]: not observed
2 | CCCCCC=CCC1OC1CC=CCC=CCCCC(=O)O (mixture of isomers) [11,12-Epoxyeicosatrienoic acid, (±)11(12)-epoxy-5Z,8Z,14Z-eicosatrienoic acid] | specifically responsive | 1.4 ± 0.3 µM | 
3 | CCCCCC=CCC=CCC1OC1CC=CCCCC(=O)O (mixture of isomers) [8,9-Epoxyeicosatrienoic acid, (±)8(9)-epoxy-5Z,11Z,14Z-eicosatrienoic acid] | specifically responsive | 6.1 ± 0.2 µM | 
4 | CCCCCC(O)C(O)CC=CCC=CCC=CCCCC(=O)O (mixture of isomers) [14,15-Dihydroxyeicosatrienoic acid, (±)14,15-dihydroxy-5Z,8Z,11Z-eicosatrienoic acid] | specifically responsive | 1.1 ± 0.4 µM | 
5 | CCCCCCCCCCCCCCCC(=O)O [Palmitic acid (C16), Palmitic acid] |  | 6.8 ± 0.5 µM | insulin secretion by MIN6 cells [7]: promoted; EC50 ([3]; read-out: EC50 Mouse GPR40): 4.6 ± 1.2 µM; EC50 ([4]; read-out: EC50 Rat GPR40): 6.6 ± 0.4 µM
6 | CCCCCC1OC1C/C=C\C/C=C\C/C=C\CCCC(=O)O (racemic) [14,15-EET, (±)14(15)-epoxy-5Z,8Z,11Z-eicosatrienoic acid] | specifically responsive |  | 
7 | CCCCCC=CCC=CCC=CCC1OC1CCCC(=O)O (mixture of isomers) [5,6-Epoxyeicosatrienoic acid, (±)5(6)-epoxy-8Z,11Z,14Z-eicosatrienoic acid] | specifically responsive | 7.7 ± 0.2 µM | 
